Experimental data as given in ChEMBL document CHEMBL4477252, “Optimization of microtubule affinity regulating kinase (MARK) inhibitors with improved physical properties” (Bioorg Med Chem Lett, 2016).

Tests used:
[1] = target: T1, Beta-adrenergic receptor kinase 1 (Homo sapiens, UniProt P25098); assay: Inhibition of full-length recombinant human His-tagged ADRBK1 expressed in baculovirus expression system by Z'-LYTE assay
T1 sequence (P25098 whole entry): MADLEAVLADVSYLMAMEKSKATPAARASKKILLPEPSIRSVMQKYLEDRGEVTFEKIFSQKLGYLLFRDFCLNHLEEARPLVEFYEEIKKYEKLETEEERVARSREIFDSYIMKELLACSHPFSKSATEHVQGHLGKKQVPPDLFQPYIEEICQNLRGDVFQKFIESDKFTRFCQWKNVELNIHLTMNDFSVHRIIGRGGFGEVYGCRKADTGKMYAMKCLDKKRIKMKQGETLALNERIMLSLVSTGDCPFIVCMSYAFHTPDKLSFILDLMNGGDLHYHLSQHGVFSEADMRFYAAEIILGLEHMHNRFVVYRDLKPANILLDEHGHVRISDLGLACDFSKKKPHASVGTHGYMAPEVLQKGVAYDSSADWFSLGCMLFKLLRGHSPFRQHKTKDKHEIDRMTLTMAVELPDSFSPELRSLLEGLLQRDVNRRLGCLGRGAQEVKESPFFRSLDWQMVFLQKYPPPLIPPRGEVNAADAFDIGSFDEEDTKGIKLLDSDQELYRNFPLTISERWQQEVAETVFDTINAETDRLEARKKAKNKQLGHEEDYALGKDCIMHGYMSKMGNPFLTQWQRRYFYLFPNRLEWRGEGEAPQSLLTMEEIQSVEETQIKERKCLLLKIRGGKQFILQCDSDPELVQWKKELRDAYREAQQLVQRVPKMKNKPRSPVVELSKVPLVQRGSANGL

[2] = target: Tyrosine-protein kinase HCK (Homo sapiens, UniProt P08631); assay: Inhibition of full-length human N-terminal GST-tagged HCK expressed in baculovirus expression system by Z'-LYTE assay
Tyrosine-protein kinase HCK, sequence (P08631 whole entry): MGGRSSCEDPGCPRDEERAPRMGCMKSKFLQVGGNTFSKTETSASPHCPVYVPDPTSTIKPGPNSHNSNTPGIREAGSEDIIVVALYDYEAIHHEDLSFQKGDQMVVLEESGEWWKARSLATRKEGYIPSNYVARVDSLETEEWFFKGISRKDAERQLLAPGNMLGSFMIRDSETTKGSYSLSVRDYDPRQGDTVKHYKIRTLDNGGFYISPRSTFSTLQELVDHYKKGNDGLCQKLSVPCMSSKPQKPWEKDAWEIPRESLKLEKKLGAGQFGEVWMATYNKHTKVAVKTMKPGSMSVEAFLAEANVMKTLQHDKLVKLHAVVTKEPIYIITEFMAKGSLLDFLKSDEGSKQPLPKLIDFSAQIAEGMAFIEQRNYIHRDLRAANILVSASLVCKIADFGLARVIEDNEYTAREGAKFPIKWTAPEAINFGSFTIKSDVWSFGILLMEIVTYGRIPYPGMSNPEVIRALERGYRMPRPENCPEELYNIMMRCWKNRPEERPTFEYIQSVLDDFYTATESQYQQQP

[3] = target: T2, MAP kinase-activated protein kinase 5 (Homo sapiens, UniProt Q8IW41); assay: Inhibition of full-length recombinant human His-tagged MAPKAPK5 expressed in baculovirus expression system by Z'-LYTE assay
T2 sequence (Q8IW41 whole entry): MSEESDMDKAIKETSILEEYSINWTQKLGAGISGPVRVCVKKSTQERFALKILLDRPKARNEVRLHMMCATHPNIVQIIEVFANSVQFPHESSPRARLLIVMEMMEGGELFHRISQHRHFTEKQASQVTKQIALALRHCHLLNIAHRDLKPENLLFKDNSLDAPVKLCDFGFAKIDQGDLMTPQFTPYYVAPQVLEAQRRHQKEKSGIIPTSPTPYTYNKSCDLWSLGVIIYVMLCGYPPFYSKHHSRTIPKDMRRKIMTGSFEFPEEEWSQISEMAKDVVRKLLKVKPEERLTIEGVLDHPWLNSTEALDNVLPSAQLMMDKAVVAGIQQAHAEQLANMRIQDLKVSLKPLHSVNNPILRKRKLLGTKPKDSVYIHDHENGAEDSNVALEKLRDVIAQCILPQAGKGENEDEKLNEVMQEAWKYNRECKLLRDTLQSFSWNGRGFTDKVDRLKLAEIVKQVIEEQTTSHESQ

[4] = target: T3, Tyrosine-protein kinase ITK/TSK (Homo sapiens, UniProt Q08881); assay: Inhibition of full-length recombinant human GST-tagged ITK expressed in baculovirus expression system by Z'-LYTE assay
T3 sequence (Q08881 whole entry): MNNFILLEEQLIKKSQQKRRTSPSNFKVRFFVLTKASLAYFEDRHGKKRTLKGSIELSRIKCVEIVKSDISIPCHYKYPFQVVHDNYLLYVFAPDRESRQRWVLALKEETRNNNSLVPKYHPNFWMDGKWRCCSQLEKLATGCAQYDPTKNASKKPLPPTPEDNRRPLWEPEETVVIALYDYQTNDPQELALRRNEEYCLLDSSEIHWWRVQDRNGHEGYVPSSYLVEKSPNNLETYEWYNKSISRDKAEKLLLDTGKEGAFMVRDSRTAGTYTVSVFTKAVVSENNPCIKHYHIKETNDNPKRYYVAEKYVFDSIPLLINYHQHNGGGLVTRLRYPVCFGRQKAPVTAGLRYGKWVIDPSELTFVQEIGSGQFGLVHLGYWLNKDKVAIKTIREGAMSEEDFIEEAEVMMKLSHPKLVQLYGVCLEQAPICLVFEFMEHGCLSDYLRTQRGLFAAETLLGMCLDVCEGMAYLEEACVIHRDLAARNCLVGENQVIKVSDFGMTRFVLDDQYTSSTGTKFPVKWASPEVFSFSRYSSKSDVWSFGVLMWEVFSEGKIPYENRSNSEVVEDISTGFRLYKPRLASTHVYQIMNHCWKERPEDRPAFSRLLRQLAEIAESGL

[5] = target: Serine/threonine-protein kinase 26 (Homo sapiens, UniProt Q9P289); assay: Inhibition of full-length recombinant human GST-tagged MST4 expressed in baculovirus expression system by Z'-LYTE assay
Serine/threonine-protein kinase 26, sequence (Q9P289 whole entry): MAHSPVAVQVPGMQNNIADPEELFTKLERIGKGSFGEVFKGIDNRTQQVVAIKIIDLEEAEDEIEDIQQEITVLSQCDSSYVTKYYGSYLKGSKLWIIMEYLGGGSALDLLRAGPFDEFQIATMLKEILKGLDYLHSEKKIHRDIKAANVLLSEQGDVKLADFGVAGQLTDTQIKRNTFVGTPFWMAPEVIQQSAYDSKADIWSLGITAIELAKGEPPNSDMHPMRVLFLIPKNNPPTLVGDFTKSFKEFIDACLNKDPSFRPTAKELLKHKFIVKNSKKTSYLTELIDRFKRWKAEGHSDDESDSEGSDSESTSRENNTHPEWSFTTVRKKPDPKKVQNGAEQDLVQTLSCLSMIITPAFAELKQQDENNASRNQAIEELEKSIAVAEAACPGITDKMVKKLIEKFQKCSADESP

[6] = target: RAC-gamma serine/threonine-protein kinase (Homo sapiens, UniProt Q9Y243); assay: Inhibition of full-length recombinant human His-tagged AKT3 expressed in baculovirus expression system by Z'-LYTE assay
RAC-gamma serine/threonine-protein kinase, sequence (Q9Y243 whole entry): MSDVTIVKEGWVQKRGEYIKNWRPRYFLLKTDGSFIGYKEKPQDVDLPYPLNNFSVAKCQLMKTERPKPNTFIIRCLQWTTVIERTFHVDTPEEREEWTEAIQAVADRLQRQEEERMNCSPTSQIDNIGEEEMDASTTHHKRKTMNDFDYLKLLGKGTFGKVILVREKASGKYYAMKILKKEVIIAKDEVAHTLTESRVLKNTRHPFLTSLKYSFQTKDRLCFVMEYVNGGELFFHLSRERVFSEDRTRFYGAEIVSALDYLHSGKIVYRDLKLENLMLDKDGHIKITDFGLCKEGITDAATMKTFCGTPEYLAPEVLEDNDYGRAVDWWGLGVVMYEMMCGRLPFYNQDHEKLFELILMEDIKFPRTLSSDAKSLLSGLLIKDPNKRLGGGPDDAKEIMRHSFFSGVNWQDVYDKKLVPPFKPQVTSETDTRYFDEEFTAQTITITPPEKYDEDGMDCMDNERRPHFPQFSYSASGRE

[7] = target: T4, Cytoplasmic tyrosine-protein kinase BMX (Homo sapiens, UniProt P51813); assay: Inhibition of full-length recombinant human His-tagged BMX expressed in baculovirus expression system by Z'-LYTE assay
T4 sequence (P51813 whole entry): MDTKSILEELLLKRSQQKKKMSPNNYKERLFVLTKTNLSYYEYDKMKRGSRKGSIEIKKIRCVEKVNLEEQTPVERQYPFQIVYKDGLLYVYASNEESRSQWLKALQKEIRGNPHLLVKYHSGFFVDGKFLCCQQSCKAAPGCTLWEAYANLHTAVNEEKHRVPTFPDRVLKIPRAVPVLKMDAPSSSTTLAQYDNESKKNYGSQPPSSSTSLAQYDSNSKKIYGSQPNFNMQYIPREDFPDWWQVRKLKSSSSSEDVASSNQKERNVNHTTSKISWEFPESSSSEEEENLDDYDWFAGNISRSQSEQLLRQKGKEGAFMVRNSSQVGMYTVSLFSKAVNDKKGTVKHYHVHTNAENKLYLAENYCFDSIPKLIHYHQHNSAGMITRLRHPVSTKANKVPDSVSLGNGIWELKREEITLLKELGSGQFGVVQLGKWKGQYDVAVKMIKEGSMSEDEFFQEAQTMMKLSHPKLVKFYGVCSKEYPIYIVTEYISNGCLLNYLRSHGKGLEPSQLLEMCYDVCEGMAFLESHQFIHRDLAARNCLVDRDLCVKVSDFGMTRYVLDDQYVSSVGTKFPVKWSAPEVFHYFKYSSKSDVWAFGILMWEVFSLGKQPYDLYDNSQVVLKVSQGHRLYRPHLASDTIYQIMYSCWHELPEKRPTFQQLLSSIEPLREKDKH

Cn1cc(-c2cnc3c(-c4csc(C(=O)NCC(F)(F)F)c4)cnn3c2)cn1
IC50 [1]: 23 µM | IC50 [2]: 0.033 µM | IC50 [3]: 19 µM | IC50 [4]: 0.094 µM | IC50 [5]: 0.29 µM | IC50 [6]: > 100 µM | IC50 [7]: 0.27 µM

Cc1sc(C(=O)N[C@@H]2[C@H](N)CCCC2(F)F)cc1-c1cnn2cc(Cl)cnc12
IC50 [1]: 11 µM | IC50 [2]: 6.4 µM | IC50 [3]: > 100 µM | IC50 [4]: 4.2 µM | IC50 [5]: 0.17 µM | IC50 [6]: 2.4 µM | IC50 [7]: 9.8 µM

O=C(NCC(F)(F)F)c1cc(-c2cnn3cc(-c4ccc(OCCN5CCCCC5)cc4)cnc23)cs1
IC50 [1]: 0.61 µM | IC50 [2]: 0.03 µM | IC50 [3]: 9.6 µM | IC50 [4]: 0.026 µM | IC50 [5]: 1.1 µM | IC50 [6]: > 100 µM | IC50 [7]: 0.41 µM

Cn1cc(-c2cnc3c(-c4csc(C(=O)N[C@@H]5CCCC[C@@H]5N)c4)cnn3c2)cn1 (racemic)
IC50 [1]: 0.16 µM | IC50 [2]: 0.0028 µM | IC50 [3]: 1.4 µM | IC50 [4]: 0.026 µM | IC50 [5]: 0.0063 µM | IC50 [6]: 0.33 µM | IC50 [7]: 0.0035 µM
